Laboratory results from US5646014A, “Peptide, antibacterial agent, peptide gene, recombinant DNA and method for preparing the peptide” (Agriculture, Forestry and Fisheries Technical Information …, priority 1994, dated 1997).

Key:
Type in all cases: cell-based
Bacillus cereus IF03457 [1] = test: Minimum inhibitory concentration (M.I.C.), liquid medium; conditions: NB medium, 30° C. for 20 hours
Description: (§1) In order to examine the antibacterial activity of the moricin obtained in Example 1 against various bacteria, the mimimum inhibitory concentration (M.I.C.) of moricin was measured based on the method described in Eur. J. Biochem., 187:381-386 (1990).
(§2) When E. coli and Staphylococcus aureus subsp. aureus were used as test bacteria, brain heart infusion medium (BHI medium, Difco) was used. When Bacillus cereus was used as a test bacterium, nutrient broth medium (NB medium, Difco) was used.
(§3) To a test medium suspending a test bacterium at a concentration of 4×10^4 cells/ml, an equal volume of the same medium containing moricin at varied concentrations was added and incubated at 30° C. for 20 hours. After the incubation, an equal volume of 6% formalin was added thereto to give a two-fold dilution. Then, the degree of cell proliferation was examined by measuring the absorbance at 650 nm. As a control, cecropin B1 [Comp. Biochem. Physiol. 95B:551 (1990)] was used which is a known antibacterial peptide derived from silkworm.

Escherichia coli JM109 [2] = test: as above; conditions: BHI medium, 30° C. for 20 hours
Description: as §1, §2, §3

[3] = system: Staphylococcus aureus subsp. aureus ATCC 6538P; test: as above; conditions: BHI medium, 30° C. for 20 hours
Description: as §1, §2, §3

Bacillus cereus IF03457 [4] = test: Growth inhibition zone on agarose plate (Test Example 2); conditions: 2 μl of 50 μM solution per well, NB plate, no sodium chloride, 2.0 mm = no zone
Description: (§4) The antibacterial activity of the moricin obtained in Example 1 against various bacteria was examined based on the method described in Nature, 292:246 (1981).
(§5) NB plate medium containing 0.8% agarose (optionally, sodium chloride was added thereto to give a concentration of 150 mM) was used.
(§6) 50 μM moricin solution was prepared. 2 μl of this solution was added to each well of a plate medium into which a test bacterium had been inoculated. The plate was incubated at 30° C. overnight and then diameters of the growth inhibition zones formed were measured. As a control, cecropin B1 was used. Incidentally, the diameter of the well was 2.0 mm.

[5] = system: Bacillus megaterium IAM1030; test: as above; conditions: 2 μl of 50 μM solution per well, NB plate, no sodium chloride, 2.0 mm = no zone
Description: as §4, §5, §6

[6] = system: Bacillus subtilis IAM1107; test: as above; conditions: 2 μl of 50 μM solution per well, NB plate, no sodium chloride, 2.0 mm = no zone
Description: as §4, §5, §6

Escherichia coli JM109 [7] = test: as above; conditions: 2 μl of 50 μM solution per well, NB plate, no sodium chloride, well 2.0 mm, 2.0 mm = no zone
Description: as §4, §5, §6

[8] = system: Pseudomonas aeruginosa IAM1514; test: as above; conditions: 2 μl of 50 μM solution per well, NB plate, no sodium chloride, 2.0 mm = no zone
Description: as §4, §5, §6

[9] = system: Pseudomonas fluorescens IAM1179; test: as above; conditions: 2 μl of 50 μM solution per well, NB plate, no sodium chloride, 2.0 mm = no zone
Description: as §4, §5, §6

[10] = system: Staphylococcus aureus ATCC6538P; test: as above; conditions: 2 μl of 50 μM solution per well, 2.0 mm = no zone
Description: as §4, §5, §6

[11] = system: Staphylococcus aureus IF03083; test: as above; conditions: 2 μl of 50 μM solution per well, NB plate, no sodium chloride, 2.0 mm = no zone
Description: as §4, §5, §6

[12] = system: Staphylococcus epidermidis IF012993; test: as above; conditions: 2 μl of 50 μM solution per well, NB plate, no sodium chloride, 2.0 mm = no zone
Description: as §4, §5, §6

[13] = system: Staphylococcus xylosus IAM1312; test: as above; conditions: 2 μl of 50 μM solution per well, NB plate, no sodium chloride, 2.0 mm = no zone
Description: as §4, §5, §6

[14] = system: Streptococcus pyogenes ATCC21547; test: as above; conditions: 2 μl of 50 μM solution per well, BHI plate, no sodium chloride, 2.0 mm = no zone
Description: as §4
When Streptococcus pyogenes was used as a test bacterium, 0.8% agarose-containing BHI plate medium was used.
as §6

Cecropin B1: known antibacterial peptide derived from silkworm, used as a control (RWKIFKKIEKMGRNIRDGIVKAGPAIEVLGSAKAI; UniProt P04142 27-61, looked up)
M.I.C. (Bacillus cereus IF03457 [1]): > 16 µg/mL
M.I.C. (Escherichia coli JM109 [2]): < 1 µg/mL
M.I.C. [3]: > 16 µg/mL
Diameter of the Inhibition Zone (Bacillus cereus IF03457 [4]): 2.0 mm
Diameter of the Inhibition Zone [5]: 10.9 mm
Diameter of the Inhibition Zone [6]: 7.8 mm
Diameter of the Inhibition Zone (Escherichia coli JM109 [7]): 10.1 mm
Diameter of the Inhibition Zone [8]: 7.9 mm
Diameter of the Inhibition Zone [9]: 8.9 mm
Diameter of the Inhibition Zone ([10]; NB plate with 150 mM sodium chloride): 2.3 mm
Diameter of the Inhibition Zone ([10]; NB plate, no sodium chloride): 6.9 mm
Diameter of the Inhibition Zone [11]: 2.0 mm
Diameter of the Inhibition Zone [12]: 9.0 mm
Diameter of the Inhibition Zone [13]: 2.0 mm
Diameter of the Inhibition Zone [14]: 2.0 mm
